Laboratory results: US20170368082A1, “FORMULATIONS OF BRINCIDOFOVIR” (priority 2016, published 2017)
Like-named read-outs stand apart in the source and are kept apart here.

What was measured:
[1] = Clinical infusion bag compatibility; format: physicochemical
Protocol: A standard mini-infusion bag (100 mL) was subjected to material compatibility testing with the following formulation:
The developed brincidofovir formulation (15 mg/mL brincidofovir, 200 mM sodium phosphate, pH=8.0) was diluted to c(BCV)=0.1 and c(BCV)=1.0 mg/mL by injection into the infusion bags. The infusion bags were then stored at ambient conditions, and samples were collected from the infusion bags at the time points (t0, t1h, t8h, and t24h) for assessments of appearance, pH, and c(BCV). As a control, the 5% dextrose solution was removed from a separate infusion bag, and external dilutions (standard laboratory glassware) of the testing formulation with the 5% dextrose solution were performed applying identical dilution factors. Samples of the external diluted solution were likewise analyzed.
Solutions of Formulation 3a, in a 5% dextrose injection vehicle, were prepared at two different formulation strengths (1.0 mg/mL and 0.1 mg/mL brincidofovir), and stored in the infusion bag at ambient conditions. Samples form the infusion bags and from an externally diluted standard were evaluated for appearance, pH and brincidofovir recovery (determined via HPLC) at the beginning of the study (t0), after 8 h (t8h), and after 24 h (t24h).

[2] = Maximum tolerated dose study, single 2-hour IV infusion (Phase 1); format: in vivo, Sprague-Dawley CD rats
Protocol: For Phase 1, Sprague-Dawley CD® rats (2/sex/dosing interval) were dosed with brincidofovir via 2-hour IV infusion once at 2, 4, 10 or 15 mg/kg. The maximum feasible dose (MFD) was limited to 15 mg/kg because of increased hemolytic potential when the concentration of brincidofovir exceeds 1 mg/mL in the dosing solution. The dose volume was 10 mL/kg/hr for all dosing intervals. Each dose administration was followed by a 2-3 day observation period. At the end of the Phase 1 treatment period, all animals were euthanized and discarded without macroscopic examination.
For Phase 1 (MTD), up to four dose levels of brincidofovir were administered as escalating single doses in naïve male and female rats via intravenous infusion (2-hour). Each dose administration was followed by a 2-3 day observation period. Each subsequent dose level was increased and administered to naïve animals based on the response to the preceding doses until the maximum tolerated dose (MTD) was identified, or until the maximum feasible dose (MFD) based on prior evidence of hemolysis of 15 mg/kg was achieved.
During Phase 1, each animal received a single dose administered via intravenous infusion (2-hours), followed by a 2-3 day observation period after each dose interval. Following the single intravenous (2-hour) infusion, the animals had their jackets and dosing sets removed and were not returned to saline maintenance.
For dose observations, Phase 1: Signs of poor health or toxic or pharmacologic effects (e.g., abnormalities in general condition, appearance, activity, behavior, respiration, etc.) observed during infusion period were recorded.

[3] = IV BCV single ascending dose study: plasma BCV and CDV PK; format: in vivo, human; details: for Tmax / clearance / half-life / AUC(0-inf) / Cmax / Vd: human; for Tmax: intravenous; for clearance / half-life / AUC(0-inf) / Cmax / Vd: plasma; for Vd: read-out: Vss
Protocol: Plasma PK samples were collected over 7 days and assayed by HPLC-MS. Plasma BCV PK parameters were determined by non-compartmental analysis and dose proportionality was assessed. Safety assessments were collected over 14 days.

[4] = Plasma BCV PK following single dose oral tablet administration (Table 105); format: in vivo; details: human; for AUC(0-inf) / Cmax: plasma, po
[5] = c(BCV) 0.1 mg/mL in infusion bag, t0
[6] = c(BCV) 0.1 mg/mL in infusion bag, t1 h
[7] = c(BCV) 0.1 mg/mL in infusion bag, t8 h
[8] = c(BCV) 0.1 mg/mL in infusion bag, t24 h
[9] = c(BCV) 0.1 mg/mL, external dilution
[10] = c(BCV) 1.0 mg/mL in infusion bag, t0
[11] = c(BCV) 1.0 mg/mL in infusion bag, t1 h
[12] = c(BCV) 1.0 mg/mL in infusion bag, t8 h
[13] = c(BCV) 1.0 mg/mL in infusion bag, t24 h
[14] = c(BCV) 1.0 mg/mL, external dilution
[15] = iv, 10 mg, plasma BCV, Cohort 1, BCV 10 mg 2 h IV infusion, n = 6
[16] = iv, 25 mg, plasma BCV, Cohort 2, BCV 25 mg 2 h IV infusion, n = 6
[17] = iv, 50 mg, plasma BCV, Cohort 3, BCV 50 mg 2 h IV infusion, n = 9
[18] = iv, 50 mg, plasma BCV, Cohort 4, BCV 50 mg 4 h IV infusion, n = 9
[19] = 100 mg, 100 mg Oral Tablet, N = 52, geometric mean
[20] = 200 mg, 200 mg Oral Tablet, N = 15, geometric mean
[21] = 200 mg, 200 mg Oral Tablet, N = 63, geometric mean
[22] = 350 mg, 350 mg Oral Tablet, N = 70, geometric mean

Question: For `CCCCCCCCCCCCCCCCOCCCOP(=O)(O)CO[C@H](CO)Cn1ccc(N)nc1=O` [Brincidofovir], which Appearance [1, 5] is on record?
Answer: Clear,

Question: What about the “Measured pH” value [1, 5] of the same compound?
Answer: 7.9

Question: And the “Observed c(BCV)” value [1, 5]?
Answer: 0.092 mg/mL

Question: What about the Appearance [1, 6] of the same compound?
Answer: Clear,

Question: And the “Measured pH” value [1, 6]?
Answer: 7.9

Question: And the “Observed c(BCV)” value [1, 6]?
Answer: 0.093 mg/mL

Question: And the Appearance [1, 7]?
Answer: Clear,

Question: What about the “Measured pH” value [1, 7] of the same compound?
Answer: 7.9

Question: And the “Observed c(BCV)” value [1, 7]?
Answer: 0.093 mg/mL

Question: And the Appearance [1, 8]?
Answer: Clear,

Question: What about the “Measured pH” value [1, 8] of the same compound?
Answer: 7.9

Question: What about the “Observed c(BCV)” value [1, 8] of the same compound?
Answer: 0.093 mg/mL

Question: And the Appearance [1, 9]?
Answer: Clear,

Question: And the “Measured pH” value [1, 9]?
Answer: 7.9

Question: And the “Observed c(BCV)” value [1, 9]?
Answer: 0.098 mg/mL

Question: What about the Appearance [1, 10] of the same compound?
Answer: Clear,

Question: And the “Measured pH” value [1, 10]?
Answer: 8.2

Question: What about the “Observed c(BCV)” value [1, 10] of the same compound?
Answer: 0.87 mg/mL

Question: What about the Appearance [1, 11] of the same compound?
Answer: Clear,

Question: What about the “Measured pH” value [1, 11] of the same compound?
Answer: 8.2

Question: What about the “Observed c(BCV)” value [1, 11] of the same compound?
Answer: 0.87 mg/mL

Question: What about the Appearance [1, 12] of the same compound?
Answer: Clear,

Question: What about the “Measured pH” value [1, 12] of the same compound?
Answer: 8.2

Question: And the “Observed c(BCV)” value [1, 12]?
Answer: 0.87 mg/mL

Question: And the Appearance [1, 13]?
Answer: Clear,

Question: What about the “Measured pH” value [1, 13] of the same compound?
Answer: 8.1

Question: What about the “Observed c(BCV)” value [1, 13] of the same compound?
Answer: 0.86 mg/mL

Question: And the Appearance [1, 14]?
Answer: Clear,

Question: And the “Measured pH” value [1, 14]?
Answer: 8.2

Question: And the “Observed c(BCV)” value [1, 14]?
Answer: 0.94 mg/mL

Question: And the Survival ([2]; 2, 4, 10 or 15 mg/kg)?
Answer: survived until their scheduled euthanasia

Question: And the Tolerability ([2]; 2, 4, 10 or 15 mg/kg single 2-hour IV infusion)?
Answer: all doses were well tolerated

Question: What about the Clinical signs ([2]; Dose 1 (2 mg/kg), both males) of the same compound?
Answer: rapid breath and hunched posture, with and without piloerection, partially closed eyes, and decreased activity

Question: What about the Clinical signs ([2]; Dose 2 (4 mg/kg), both males and one female) of the same compound?
Answer: irregular breathing

Question: What about the Clinical signs ([2]; Dose 3 (10 mg/kg)) of the same compound?
Answer: No clinical signs were observed

Question: And the Clinical signs ([2]; Dose 4 (15 mg/kg), both males and one female)?
Answer: decreased activity with or without irregular breathing, piloerection, and bilateral partially closed eyes

Question: And the “Maximum feasible dose (MFD)” value ([2]; single 2-hour IV infusion)?
Answer: 15 mg/kg

Question: What about the “Geometric mean plasma BCV AUC∞ relative to oral 100 mg tablets” value ([3]; BCV IV 50 mg) of the same compound?
Answer: 4.5 fold

Question: What about the “Plasma BCV Cmax and AUCs vs dose” value ([3]; IV single ascending dose) of the same compound?
Answer: increased in proportion to dose

Question: What about the Tmax ([3]; 50 mg, plasma BCV, 4-hour infusion (Cohort 4)) of the same compound?
Answer: 2.5 to 4 h

Question: And the Tmax ([3]; plasma BCV, Cohorts 1-3 (2-hour infusion))?
Answer: 2 h

Question: What about the clearance [3, 15] of the same compound?
Answer: 127 mL/min

Question: And the half-life [3, 15]?
Answer: 205 min

Question: And the AUC(0-inf) ([3]; iv, 10 mg, plasma BCV, Cohort 1, BCV 10 mg 2 h IV infusion, n = 6, geometric mean, read-out: AUC∞)?
Answer: 1310 ng·h/mL

Question: What about the Cmax ([3]; iv, 10 mg, plasma BCV, Cohort 1, BCV 10 mg 2 h IV infusion, n = 6, geometric mean, read-out: Cmax) of the same compound?
Answer: 613 ng/mL

Question: What about the Vd [3, 15] of the same compound?
Answer: 16.4 L

Question: And the clearance [3, 16]?
Answer: 144 mL/min

Question: And the half-life [3, 16]?
Answer: 353 min

Question: What about the AUC(0-inf) ([3]; iv, 25 mg, plasma BCV, Cohort 2, BCV 25 mg 2 h IV infusion, n = 6, geometric mean, read-out: AUC∞) of the same compound?
Answer: 2890 ng·h/mL

Question: What about the Cmax ([3]; iv, 25 mg, plasma BCV, Cohort 2, BCV 25 mg 2 h IV infusion, n = 6, geometric mean, read-out: Cmax) of the same compound?
Answer: 1410 ng/mL

Question: What about the Vd [3, 16] of the same compound?
Answer: 19.8 L

Question: And the clearance [3, 17]?
Answer: 140 mL/min

Question: What about the half-life [3, 17] of the same compound?
Answer: 392 min

Question: And the AUC(0-inf) ([3]; iv, 50 mg, plasma BCV, Cohort 3, BCV 50 mg 2 h IV infusion, n = 9, geometric mean, read-out: AUC∞)?
Answer: 5950 ng·h/mL

Question: And the Cmax ([3]; iv, 50 mg, plasma BCV, Cohort 3, BCV 50 mg 2 h IV infusion, n = 9, geometric mean, read-out: Cmax)?
Answer: 2950 ng/mL

Question: What about the Vd [3, 17] of the same compound?
Answer: 19.5 L

Question: And the clearance [3, 18]?
Answer: 127 mL/min

Question: What about the half-life [3, 18] of the same compound?
Answer: 306 min

Question: And the AUC(0-inf) ([3]; iv, 50 mg, plasma BCV, Cohort 4, BCV 50 mg 4 h IV infusion, n = 9, geometric mean, read-out: AUC∞)?
Answer: 6570 ng·h/mL

Question: And the Cmax ([3]; iv, 50 mg, plasma BCV, Cohort 4, BCV 50 mg 4 h IV infusion, n = 9, geometric mean, read-out: Cmax)?
Answer: 1590 ng/mL

Question: What about the Vd [3, 18] of the same compound?
Answer: 10.8 L

Question: What about the AUC(0-inf) ([3]; po, 100 mg, BCV oral 100 mg tablets, read-out: Plasma BCV AUC∞) of the same compound?
Answer: 1390 ng·h/mL

Question: What about the Cmax ([3]; po, 100 mg, BCV oral 100 mg tablets, read-out: Plasma BCV Cmax) of the same compound?
Answer: 251 ng/mL

Question: What about the half-life ([4]; 100 mg Oral Tablet, N = 52, geometric mean) of the same compound?
Answer: 457 min

Question: And the half-life ([4]; 200 mg Oral Tablet, N = 15, geometric mean)?
Answer: 720 min

Question: What about the AUC(0-inf) [4, 19] of the same compound?
Answer: 1380 ng·h/mL

Question: What about the Cmax [4, 19] of the same compound?
Answer: 258 ng/mL

Question: And the AUC(0-inf) [4, 20]?
Answer: 3310 ng·h/mL

Question: What about the Cmax [4, 20] of the same compound?
Answer: 622 ng/mL

Question: What about the AUC(0-inf) [4, 21] of the same compound?
Answer: 3740 ng·h/mL

Question: And the Cmax [4, 21]?
Answer: 802 ng/mL

Question: What about the AUC(0-inf) [4, 22] of the same compound?
Answer: 6940 ng·h/mL

Question: What about the Cmax [4, 22] of the same compound?
Answer: 1480 ng/mL
